The target of test [1] is Histone deacetylase (Homo sapiens) (UniProt Q13547+O15379+Q9UBN7+Q92769+Q9UQL6+Q8WUI4+Q9BY41+Q96DB2+P56524+Q9UKV0+Q969S8). Conditions: SH-SY5Y, at 3 mM.
Description: Inhibition of HDAC in human SH-SY5Y cells under ER stress assessed as acetylated H3 levels at 3 mM after 48 hrs by Western blot analysis in presence of tunicamycin
A short description of test [2]: Chemical chaperone activity assessed as suppression of alpha-lactalbumin-bovine serum albumin aggregation at 3 mM by turbidity assay. In kind it is functional.

Molecules are shown by their SMILES. The source made the active and inactive calls. The rule behind the calls is not given here.

`COc1ccc(CCCC(=O)O)cc1`: in test [1], the inhibition result is “Active”.

Regarding `O=C(O)CCCc1ccc([N+](=O)[O-])cc1`, in test [1], the inhibition result was “Active”.

For the molecule `O=C(O)CCCc1ccccc1`, the inhibition result in test [1] is “Active”. Further, in test [2], the outcome was Active.

For the origin of these results see ChEMBL document CHEMBL2434862, “4-Phenylbutyric acid protects against neuronal cell death by primarily acting as a chemical chaperone rather than histone deacetylase inhibitor” (Bioorg Med Chem Lett, 2013).
